Target: Trace amine-associated receptor 1 (Homo sapiens) (UniProt Q96RJ0)
Experiment: TAAR1 activation concentration-response – cell-based, fluorescence, late stage, dose response (AID 743229)
Settings: TAAR1-expressing cells, fluorescence agonist read-out; cut-off not given, nearly all actives have EC50 up to about 2.8 µM

Sequence of Trace amine-associated receptor 1 (Homo sapiens) (Q96RJ0 whole entry, looked up): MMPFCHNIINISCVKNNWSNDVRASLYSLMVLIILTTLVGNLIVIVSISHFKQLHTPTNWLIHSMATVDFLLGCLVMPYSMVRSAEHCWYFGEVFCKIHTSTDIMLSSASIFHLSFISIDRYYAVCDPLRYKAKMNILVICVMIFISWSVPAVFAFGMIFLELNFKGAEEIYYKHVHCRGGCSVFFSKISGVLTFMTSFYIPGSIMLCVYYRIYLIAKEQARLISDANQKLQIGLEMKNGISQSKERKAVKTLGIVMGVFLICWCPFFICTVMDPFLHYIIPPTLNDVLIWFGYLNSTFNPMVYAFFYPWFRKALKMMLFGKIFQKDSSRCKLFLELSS

EC50, active:
OCCNc1nc(Nc2ccc(O)cc2)nc2ccccc12 804 nM, O=C(C(=O)N1CCc2ccccc2C1)c1cn(CC(=O)N2CCCCC2)c2ccccc12 781 nM, c1ccc(CCn2nnnc2C(c2cccs2)N2CCN(Cc3ccc4c(c3)OCO4)CC2)cc1 (centres undefined) 233 nM, OCCNc1nc(Nc2cccc(O)c2)nc2ccccc12 257 nM, c1ccc2c3c([nH]c2c1)CCNC3 294 nM, CCOC(=O)C(NC(C)=O)(N1CCc2ccccc2C1)C(F)(F)F (centres undefined) 75 nM, COc1cc(C(=O)CCN2CCC(c3ccccc3)C2)cc(OC)c1OC (centres undefined) 85.9 nM, CC(=NCCc1ccccc1)C1CCOC1=O (centres undefined) 36.5 nM, O=C(CCN1CCc2ccccc2CC1)c1ccc2c(c1)OCCO2 340 nM, O=C(Nc1ccncc1)Nc1ccc(F)cc1 866 nM, Nc1nc(Nc2ccccc2)nc2ccccc12 210 nM, O=C(CCN1CCC(c2ccccc2)C1)c1cccs1 (centres undefined) 108 nM, c1ccc2c(c1)CCN(c1nc3cc4c(cc3s1)OCO4)C2 278 nM, O=C(CCN1CCC(c2ccccc2)C1)c1ccc2c(c1)OCCO2 (centres undefined) 263 nM, CCOC(=O)C(NC(=O)CC)(N1CCc2ccccc2C1)C(F)(F)F (centres undefined) 42.4 nM, O=C(Nc1ccccc1)Nc1ccncc1 807 nM, O=C(Nc1cccnc1)Nc1cccc(F)c1 3310 nM, O=C(CCCCl)N1CCc2[nH]c3ccccc3c2C1 101 nM, Nc1nc(Nc2cccc(F)c2)nc2ccccc12 346 nM, NC(N)=NN=Cc1c(Cl)cccc1Cl 219 nM, CC1(C)CCCN(C(=O)c2coc(=O)c(Br)c2)C1 481 nM, Cc1cc(C)n(C(CC(=O)N2CCc3ccccc3C2)C(=O)O)n1 (centres undefined) 170 nM, Cc1ccc(NC(=O)CCN2CCc3ccccc3C2)cc1 1270 nM, Cc1cc(N(C)C)nc(Nc2ccccc2)n1 182 nM
